Read-outs that look alike come from different tables or passages of the source.
Legend:
Assay type in all cases: physicochemical
[1] = Dynamic vapor sorption (DVS)
Procedure: 4. Dynamic Vapor Sorption (DVS)
Instrument: TA Instruments Q5000 SA
Detection method: 20 to 50 mg of the sample was placed in a tared sample basket and automatically weighed, and DVS testing was performed according to the parameters in Table 7: Step Time: 60 min; Equilibration Time per RH %: 1 hour; Total Gas Flow Rate: 200 sccm; Gradient mode: 0%-90%-0% humidity variation, with a humidity variation amount of 10% for each gradient level between 0% and 90%, and gradient endpoint was determined by dm/dt<0.01% maintained for 10 minutes.

[2] = Stability test, placed open 7 days (HPLC purity, XRPD); grinding or crushing; conditions: for remaining at […]: solid state, open, 7 days, read-out: Purity (Peak area %) 7 days
Source text: Subsequently, the samples after 7 days were respectively detected by HPLC and XRPD to determine their chemical and physical stabilities.

[3] = Stress testing (high temperature, high humidity, illumination); conditions: for remaining at […] / remaining at 336 h / remaining at 720 h: read-out: Content
[4] = Competition experiment between anhydrates and solvates and solvent activity experiment
[5] = Accelerated stability testing; conditions: 40° C.±2° C./75%±5% RH
Procedure: (2) Accelerated Stability Testing
(§1) Packaging: Simulated the commercial packaging (using a pharmaceutical-grade low-density polyethylene bag as the inner packaging and a polyester/aluminum/polyethylene composite bag for pharmaceutical packaging as the outer packaging)
Investigation conditions: 40° C.±2° C./75%±5% RH

[6] = Long-term stability testing; conditions: 25° C.±2° C./60%±5% RH
Procedure: (3) Long-Term Stability Testing
as §1
Investigation conditions: 25° C.±2° C./60%±5% RH

[7] = 60° C., 92.5% RH and 40° C./75% RH for 7 days
[8] = High Humidity (92.5% RH), 7 days
[9] = High Humidity (92.5% RH), 14 days
[10] = High Humidity (92.5% RH), 30 days
[11] = High Temperature (60° C.), 7 days
[12] = High Temperature (60° C.), 14 days
[13] = High Temperature (60° C.), 30 days
[14] = Illumination Testing 45001x ± 5001x, 7 days
[15] = Illumination Testing 45001x ± 5001x, 14 days
[16] = Illumination Testing 45001x ± 5001x, 30 days

Question: What does the source list for `CC(=O)c1c(C)c2cnc(Nc3ccc4c(c3)OC[C@@H]3CN(C5CCN(C)CC5)CCN43)nc2n(C2CCCC2)c1=O` [crystalline form A-I]?
Answer: hygroscopicity (DVS) ([1]; 0%-90% RH): non-hygroscopic; weight change (DVS) ([1]; across 0%-90% RH): approximately 0.17%; Purity (Peak area %) 0 day ([2]; 0 day): 99.16 Peak area %; chemical stability (HPLC) [2, 7]: chemically stable; crystalline form by XRPD after 7 days under the three conditions [2, 7]: remained unchanged; crystalline form after grinding or crushing ([2]; grinding or crushing): remained unchanged; remaining at […] ([2]; 40° C./75% RH): 99.2%; remaining at […] ([2]; 60° C.): 99.2%; remaining at […] ([2]; 92.5% RH): 99.2%; Description Appearance ([3]; 0 Day): Yellow; crystalline form ([3]; 0 Day): crystalline; Description Appearance [3, 8]: Yellow; remaining at […] [3, 8]: 100%; Description Appearance [3, 9]: Yellow; remaining at 336 h [3, 9]: 99.6%; Description Appearance [3, 10]: Yellow; remaining at 720 h [3, 10]: 101%; Description Appearance [3, 11]: Yellow; remaining at […] [3, 11]: 100%; Description Appearance [3, 12]: Yellow; remaining at 336 h [3, 12]: 101%; Description Appearance [3, 13]: Yellow; remaining at 720 h [3, 13]: 100%; Description Appearance [3, 14]: Yellow; Total impurities [3, 14]: 0.76%; loss on drying [3, 14]: 0.07%; remaining at […] [3, 14]: 101%; Description Appearance [3, 15]: Yellow; Total impurities [3, 15]: 0.79%; loss on drying [3, 15]: 0.06%; remaining at 336 h [3, 15]: 100%; Description Appearance [3, 16]: Yellow; Total impurities [3, 16]: 0.84%; crystalline form [3, 16]: Unchanged; loss on drying [3, 16]: 0.07%; remaining at 720 h [3, 16]: 100%; change in the description ([3]; all stress test conditions): no significant change; change in the hygroscopic weight gain ([3]; high-humidity conditions): no significant change; relevant substances compared with 0 month ([3]; high-humidity conditions): remained unchanged; change in relevant substances ([3]; high-temperature conditions): no significant change

Question: With `CC(=O)c1c(C)c2cnc(Nc3ccc4c(c3)OC[C@@H]3CN(C5CCN(C)CC5)CCN43)nc2n(C2CCCC2)c1=O` [listing 1 of 4 here] as the compound, how does the “Test Results (crystalline form by XRPD)” value ([4]; solvent activity experiment, 20% Dimethyl sulfoxide (v/v)) read?
Answer: Its value is “crystalline form A-I”.

Question: What about the “Test Results (crystalline form by XRPD)” value ([4]; solvent activity experiment, 50% Dimethyl sulfoxide (v/v)) of the same compound?
Answer: The value was “crystalline form A-I”.

Question: And the “Test Results (crystalline form by XRPD)” value ([4]; solvent activity experiment, 80% Dimethyl sulfoxide (v/v))?
Answer: Its value is “crystalline form A-I”.

Question: Which results are given for `CC(=O)c1c(C)c2cnc(Nc3ccc4c(c3)OC[C@@H]3CN(C5CCN(C)CC5)CCN43)nc2n(C2CCCC2)c1=O` [crystalline form F]?
Answer: XRPD pattern / crystalline form after the DVS test ([1]; after DVS test): did not change; moisture absorption (DVS) ([1]; at 80% RH): approximately 3.8%

Question: Which results are given for `CC(=O)c1c(C)c2cnc(Nc3ccc4c(c3)OC[C@@H]3CN(C5CCN(C)CC5)CCN43)nc2n(C2CCCC2)c1=O` [listing 2 of 4 here]?
Answer: Test Results (crystalline form by XRPD) ([4]; solvent activity experiment, 20% Trifluoroethanol (v/v)): crystalline form A-I; Test Results (crystalline form by XRPD) ([4]; solvent activity experiment, 50% Trifluoroethanol (v/v)): crystalline form A-I; Test Results (crystalline form by XRPD) ([4]; solvent activity experiment, 80% Trifluoroethanol (v/v)): crystalline form A-II

Question: With `CC(=O)c1c(C)c2cnc(Nc3ccc4c(c3)OC[C@@H]3CN(C5CCN(C)CC5)CCN43)nc2n(C2CCCC2)c1=O` [listing 3 of 4 here] as the compound, how does the “Test Results (crystalline form by XRPD)” value ([4]; competition experiment, n-Butanol, room temperature) read?
Answer: The value was “crystalline form A-I”.

Question: What about the “Test Results (crystalline form by XRPD)” value ([4]; competition experiment, n-Butanol/Anisole (v:v = 1:1), room temperature) of the same compound?
Answer: Its value is “crystalline form A-I”.

Question: For `CC(=O)c1c(C)c2cnc(Nc3ccc4c(c3)OC[C@@H]3CN(C5CCN(C)CC5)CCN43)nc2n(C2CCCC2)c1=O` [listing 4 of 4 here], which “Description Appearance” value ([5]; 0 months) is on record?
Answer: The value was “Yellow”.

Question: And the Total impurities ([5]; 0 months)?
Answer: Its Total impurities is 0.84%.

Question: What about the crystalline form ([5]; 0 months) of the same compound?
Answer: Its crystalline form is “crystalline”.

Question: And the loss on drying ([5]; 0 months)?
Answer: Its loss on drying is 0.03%.

Question: And the “Description Appearance” value ([5]; 1 month)?
Answer: Its value is “Yellow”.

Question: What about the Total impurities ([5]; 1 month) of the same compound?
Answer: The Total impurities was 0.80%.

Question: And the loss on drying ([5]; 1 month)?
Answer: The loss on drying was 0.04%.

Question: And the “Description Appearance” value ([5]; 2 months)?
Answer: The value was “Yellow”.

Question: What about the Total impurities ([5]; 2 months) of the same compound?
Answer: Its Total impurities is 0.82%.

Question: What about the loss on drying ([5]; 2 months) of the same compound?
Answer: Its loss on drying is 0.02%.

Question: And the “Description Appearance” value ([5]; 3 months)?
Answer: Its value is “Yellow”.

Question: What about the Total impurities ([5]; 3 months) of the same compound?
Answer: Its Total impurities is 0.85%.

Question: What about the crystalline form ([5]; 3 months) of the same compound?
Answer: The crystalline form was “Unchanged”.

Question: What about the loss on drying ([5]; 3 months) of the same compound?
Answer: The loss on drying was 0.02%.

Question: What about the “Description Appearance” value ([5]; 6 months) of the same compound?
Answer: The value was “Yellow”.

Question: And the Total impurities ([5]; 6 months)?
Answer: Its Total impurities is 0.77%.

Question: And the crystalline form ([5]; 6 months)?
Answer: Its crystalline form is “Unchanged”.

Question: And the loss on drying ([5]; 6 months)?
Answer: Its loss on drying is 0.08%.

Question: And the remaining at 720 h ([5]; solid, 75% rh storage, 1 month, read-out: Measured content)?
Answer: Its remaining at 720 h is 100%.

Question: And the remaining at 1440 h ([5]; solid, 75% rh storage, 2 months, read-out: Measured content)?
Answer: The remaining at 1440 h was 101%.

Question: And the remaining at 2160 h ([5]; solid, 75% rh storage, 3 months, read-out: Measured content)?
Answer: The remaining at 2160 h was 101%.

Question: And the remaining at 4320 h ([5]; solid, 75% rh storage, 6 months, read-out: Measured content)?
Answer: The remaining at 4320 h was 101%.

Question: And the “Description Appearance” value ([6]; 0 months)?
Answer: Its value is “Yellow”.

Question: What about the Total impurities ([6]; 0 months) of the same compound?
Answer: The Total impurities was 0.84%.

Question: And the crystalline form ([6]; 0 months)?
Answer: Its crystalline form is “crystalline”.

Question: And the loss on drying ([6]; 0 months)?
Answer: Its loss on drying is 0.03%.

Question: And the “Description Appearance” value ([6]; 3 months)?
Answer: Its value is “Yellow solid”.

Question: What about the Total impurities ([6]; 3 months) of the same compound?
Answer: The Total impurities was 0.89%.

Question: What about the crystalline form ([6]; 3 months) of the same compound?
Answer: Its crystalline form is “Unchanged”.

Question: And the loss on drying ([6]; 3 months)?
Answer: The loss on drying was 0.02%.

Question: What about the “Description Appearance” value ([6]; 6 months) of the same compound?
Answer: Its value is “Yellow solid”.

Question: And the Total impurities ([6]; 6 months)?
Answer: The Total impurities was 0.75%.

Question: And the crystalline form ([6]; 6 months)?
Answer: Its crystalline form is “Unchanged”.

Question: And the loss on drying ([6]; 6 months)?
Answer: The loss on drying was 0.05%.

Question: What about the “Description Appearance” value ([6]; 9 months) of the same compound?
Answer: The value was “Yellow solid”.

Question: What about the Total impurities ([6]; 9 months) of the same compound?
Answer: The Total impurities was 0.73%.

Question: And the crystalline form ([6]; 9 months)?
Answer: The crystalline form was “Unchanged”.

Question: What about the loss on drying ([6]; 9 months) of the same compound?
Answer: Its loss on drying is 0.05%.

Question: And the “Description Appearance” value ([6]; 12 months)?
Answer: Its value is “Yellow solid”.

Question: What about the Total impurities ([6]; 12 months) of the same compound?
Answer: The Total impurities was 0.78%.

Question: And the crystalline form ([6]; 12 months)?
Answer: The crystalline form was “Unchanged”.

Question: What about the loss on drying ([6]; 12 months) of the same compound?
Answer: Its loss on drying is 0.05%.

Question: And the “Description Appearance” value ([6]; 18 months)?
Answer: Its value is “Yellow solid”.

Question: What about the Total impurities ([6]; 18 months) of the same compound?
Answer: Its Total impurities is 0.71%.

Question: And the crystalline form ([6]; 18 months)?
Answer: Its crystalline form is “Unchanged”.

Question: And the loss on drying ([6]; 18 months)?
Answer: The loss on drying was 0.03%.

Question: What about the remaining at 2160 h ([6]; solid, 60% rh storage, 3 months, read-out: Measured content) of the same compound?
Answer: The remaining at 2160 h was 101%.

Question: And the remaining at 4320 h ([6]; solid, 60% rh storage, 6 months, read-out: Measured content)?
Answer: The remaining at 4320 h was 101%.

Question: What about the remaining at 6480 h ([6]; solid, 60% rh storage, 9 months, read-out: Measured content) of the same compound?
Answer: The remaining at 6480 h was 99.6%.

Question: What about the remaining at 8640 h ([6]; solid, 60% rh storage, 12 months, read-out: Measured content) of the same compound?
Answer: Its remaining at 8640 h is 101%.

Question: What about the remaining at 12960 h ([6]; solid, 60% rh storage, 18 months, read-out: Measured content) of the same compound?
Answer: The remaining at 12960 h was 98.7%.
